Experimental data published in patent US20100075960A1 (priority 2006, published 2010).

These compounds were tested on HCT116 (assay: Inhibition of cell proliferation, HCT116). Conditions: Homo sapiens, HCT-116; 72 h treatment; methylene blue or CellTiter-Glo.
Format: cell-based
Experimental: II. Inhibition of Cell Proliferation by PLK1 Inhibitors.
Exponentially growing cell lines of different tumor origins, cultured in appropriate media containing 10% fetal bovine serum at 37° C. in a 5% CO2 incubator were plated in 96 or 384-well plates. Twenty four hours post-plating, cells were treated with different concentrations of test compounds ranging from 20 μM to 0.04 nM. Several wells were left untreated as a control. Seventy two hours post-treatment, cell numbers were determined using different techniques; 100 μl per well of methylene blue (Sigma M9140) (0.5% in 50:50 Ethanol:water), or 10-100 μl per well of CellTiter-Glo (Promega #G7573), depending on well size. For methylene blue staining, stain was incubated at room temperature for 30 minutes before plates were rinsed and dye solubilized in 1% N-lauroyl sarcosine, sodium salt, (Sigma L5125, in PBS). Plates were read on a microplate reader, measuring the OD at 620 nm. For CellTiter-Glo, plates were incubated at room temperature for 15 minutes and the chemiluminescent signal was read on the Victor V or Envison 2100 reader.
Percent inhibition of cell growth was expressed as percent proliferation relative to 100% proliferation (control). Concentration of test compound that inhibited 50% of cell growth (IC50) was determined by 4 parameter fit of data using XLfit, (value of no cell control was substracted from all samples for background). The data are shown in Table 1 and Table 2 below and represent a compilation of several different experiments each performed using the general parameters outlined above, although minor variations may have been employed in some instances, in Table 1 and Table 2, +=IC50>1 μM; ++=IC50 0.5-1 μM: +++=IC50<0.5 μM.
In the case of `Cc1nnc(-c2ccc3c(c2)ncn3-c2cc(O[C@H](C)c3cccc(OC4CCNCC4)c3Cl)c(C(N)=O)s2)o1` [Example 87, 3-({(1R)-1-(2-Chloro-3-(4-piperidinyloxy)phenyl]ethyl}oxy)-5-[5-(5-methyl-1,3,4-oxadiazol-2-yl)-1H-benzimidazol-1-yl]-2-thiophenecarboxamide], the IC50 is reported as less than 500 nM. Work on `C[C@@H](Oc1cc(-n2cnc3cc(-c4cnn(C)c4)ccc32)sc1C(N)=O)c1cccc(OCC2CCN(C(=O)OC(C)(C)C)CC2)c1Cl` [Example 43, 1,1-Dimethylethyl 4-[({3-[(1R)-1-({2-(aminocarbonyl)-5-[5-(1-methyl-1H-pyrazol-4-yl)-1H-benzimidazol-1-yl]-3-thienyl}oxy)ethyl]-2-chlorophenyl}oxy)methyl]-1-piperidinecarboxylate] yielded an IC50 greater than 1000 nM. Work on `C[C@@H](Oc1cc(-n2cnc3cc(Cl)c(F)cc32)sc1C(N)=O)c1cccc(OC2CCNCC2)c1Cl` [Example 67] yielded an IC50 of less than 500 nM. Compound `C[C@@H](Oc1cc(-n2cnc3ccc(OC(F)(F)F)cc32)sc1C(N)=O)c1cccc(OC2CCN(C)CC2)c1Cl` [Example 64, 3-[((1R)-1-(2-chloro-3-[(1-methyl-4-piperidinyl)oxy]phenyl}ethyl)oxy]-5-{6-[(trifluoromethyl)oxy]-1H-benzimidazol-1-yl}-2-thiophenecarboxamide] has an IC50 of less than 500 nM. `Cc1nnc(-c2ccc3c(c2)ncn3-c2cc(O[C@H](C)c3cccc(OC4CCN(C)CC4)c3Cl)c(C(N)=O)s2)o1` [Example 88] showed an IC50 of less than 500 nM. Work on `C[C@@H](Oc1cc(-n2cnc3cc(Cl)ccc32)sc1C(N)=O)c1ccc(F)c(OC2CCN(C)CC2)c1Cl` [Example 32, 5-(5-Chloro-1H-benzimidazol-1yl)-3-[((1R)-1-{2-chloro-4-fluoro-3-[(1-methyl-4-piperidinyl)oxy]phenyl}ethyl)oxy]-2-thiophenecarboxamide] yielded an IC50 of less than 500 nM. With `CC(Oc1cc(-n2cnc3cc(-c4cnn(C)c4)ccc32)sc1C(N)=O)c1ccnc(OC2CCNCC2)n1` (racemic) [Example 77, (±)-5-[5-(1-Methyl-1H-pyrazol-4-yl)-1H-benzimidazol-1-yl]-3-({1-[2-(4-piperidinyloxy-4-pyrimidinyl]ethyl}oxy)-2-thiophenecarboxamide] the IC50 was greater than 1000 nM. `C[C@@H](Oc1cc(-n2cnc3cc(Cl)ccc32)sc1C(N)=O)c1cccc(OC[C@H]2CNCCO2)c1Cl` [Example 27, 5-(5-Chloro-1H-benzimidazol-1-yl)-3-{[(1R)-1-(2-chloro-3-{[(2R)-2-morpholinomethyl]oxy}phenyl)ethyl]oxy}-2-thiophenecarboxamide] showed an IC50 of less than 500 nM. With `C[C@@H](Oc1cc(-n2cnc3cc(Cl)c(F)cc32)sc1C(N)=O)c1cccc(OC2CCN(C)CC2)c1Cl` [Example 68, 5-(5-Chloro-6-fluoro-1H-benzimidazol-1-yl)-3-[((1R)-1-{2-chloro-3-[(1-methyl-4-piperidinyl)oxy]phenyl}ethyl)oxy]-2-thiophenecarboxamide] the IC50 was less than 500 nM. For `CC(Oc1cc(-n2cnc3cc(-c4cnn(C)c4)ccc32)sc1C(N)=O)c1cccc(OC2CCNCC2)c1F` (racemic) [Example 75], the IC50 was less than 500 nM. `C[C@@H](Oc1cc(-n2cnc3cc(-c4cnn(C)c4)ccc32)sc1C(N)=O)c1cccc(OC2CCN(CCC(F)(F)F)CC2)c1Cl` [Example 30, 3-{[(1R)-1-(2-chloro-3-{[1-(3,3,3-trifluoropropyl)-4-piperidinyl]oxy}phenyl)ethyl]oxy}-5-[5-(1-methyl-1H-pyrazol-4-yl)-1H-benzimidazol-1-yl]-2-thiophenecarboxamide] gave an IC50 of less than 500 nM. `C[C@@H](Oc1cc(-n2cnc3cc(-c4cnn(C)c4)ccc32)sc1C(N)=O)c1ccc(F)c(OC2CCN(CCS(C)(=O)=O)CC2)c1Cl` [Example 36, 3-({(1R)-1-[2-Chloro-4-fluoro-3-({1-[2-(methylsulfonyl)ethyl]-4-piperidinyl}oxy)phenyl]ethyl}oxy)-5-[5-(1-methyl-1H-pyrazol-4-yl)-1H-benzimidazol-1-yl]-2-thiophenecarboxamide] showed an IC50 of less than 500 nM. For `C[C@@H](Oc1cc(-n2cnc3cc(Br)ccc32)sc1C(N)=O)c1cccc(OC2CCN(C)CC2)c1Cl` [Example 51, 5-(5-Bromo-1H-benzimidazol-1-yl)-3-[((1R)-1-{2-chloro-3-[(1-methyl-4-piperidinyl)oxy]phenyl}ethyl)oxy]-2-thiophenecarboxamide], the IC50 was less than 500 nM. In the case of `C[C@@H](Oc1cc(-n2cnc3cc(OC(F)(F)F)ccc32)sc1C(N)=O)c1cccc(OC2CCN(C)CC2)c1Cl` [Example 62, 3-[((1R)-1-{2-chloro-3-[(1-methyl-4-piperidinyl)oxy]phenyl}ethyl)oxy]-5-{5-[(trifluoromethyl)oxy]-1H-benzimidazol-1-yl}-2-thiophenecarboxamide], the IC50 is reported as less than 500 nM. Compound `C[C@@H](Oc1cc(-n2cnc3cc(Cl)ccc32)sc1C(N)=O)c1cccc(OC2CCNCC2)c1Cl` [Example 8, 5-(5-Chloro-1H-benzimidazol-1-yl)-3-({(1R)-1-[2-chloro-3-(4-piperidinyloxy)phenyl]ethyl}oxy)-2-thiophenecarboxamide] has an IC50 of less than 500 nM. `C[C@@H](Oc1cc(-n2cnc3ccccc32)sc1C(N)=O)c1cccc(OC2CCN(C)CC2)c1Cl` [Example 13, 5-(1H-benzimidazol-1-yl)-3-[((1R)-1-{2-chloro-3-[(1-methyl-4-piperidinyl)oxy]phenyl}ethyl)oxy]-2-thiophenecarboxamide] showed an IC50 of less than 500 nM. For `C[C@@H](Oc1cc(-n2cnc3cc(Cl)c(Cl)cc32)sc1C(N)=O)c1cccc(OC2CCNCC2)c1Cl` [Example 71, 3-({(1R)-1-[2-Chloro-3-(4-piperidinyloxy)phenyl]ethyl}oxy)-5-(5,6-dichloro-1H-benzimidazol-1-yl)-2-thiophenecarboxamide], the IC50 was less than 500 nM. `C[C@@H](Oc1cc(-n2cnc3cc(-c4cnn(C)c4)ccc32)sc1C(N)=O)c1c(F)ccc(OC2CCN(C)CC2)c1Cl` [Example 38, 3-[((1R)-1-{2-Chloro-6-fluoro-3-[(1-methyl-4-piperidinyl)oxy]phenyl}ethyl)oxy]-5-[5-(1-methyl-1H-pyrazol-4-yl)-1H-benzimidazol-1-yl]-2-thiophenecarboxamide] gave an IC50 of less than 500 nM. In the case of `C[C@@H](Oc1cc(-n2cnc3cc(Cl)ccc32)sc1C(N)=O)c1cccc(OC2CCN(CCF)CC2)c1Cl` [Example 21, 5-(5-Chloro-1H-benzimidazol-1-yl)-3-{[(1R)-1-(2-chloro-3-{[1-(2-fluoroethyl)-4-piperidinyl]oxy}phenyl)ethyl]oxy}-2-thiophenecarboxamide], the IC50 is reported as less than 500 nM. In the case of `Cc1ccc(-c2ccc3c(c2)ncn3-c2cc(O[C@H](C)c3cccc(OC4CCN(C)CC4)c3Cl)c(C(N)=O)s2)cn1` [Example 10, 3-[((1R)-1-[2-chloro-3-[(1-methyl-4-piperidinyl)oxy]phenyl}ethyl)oxy]-5-[5-(6-methyl-3-pyridinyl)-1H-benzimidazol-1-yl]-2-thiophenecarboxamide], the IC50 is reported as less than 500 nM. In the case of `CCN1CCC(Oc2cccc([C@@H](C)Oc3cc(-n4cnc5cc(Cl)ccc54)sc3C(N)=O)c2Cl)CC1` [Example 19, 5-(5-Chloro-1H-benzimidazol-1-yl)-3-[((1R)-1-{2-chloro-3-[(1-ethyl-4-piperidinyl)oxy]phenyl}ethyl)oxy]-2-thiophenecarboxamide], the IC50 is reported as less than 500 nM. `C[C@@H](Oc1cc(-n2cnc3cc(-c4cccnc4)ccc32)sc1C(N)=O)c1cccc(OC2CCN(C)CC2)c1Cl` [Example 11, 3-[((1R)-1-[2-chloro-3-[(1-methyl-4-piperidinyl)oxy]phenyl}ethyl)oxy}-5-[5-(3-pyridinyl)-1H-benzimidazol-1-yl]-2-thiophenecarboxamide] gave an IC50 of less than 500 nM. For `COc1cc2ncn(-c3cc(O[C@H](C)c4cccc(NCC5CCN(C)CC5)c4Cl)c(C(N)=O)s3)c2cc1OC` [Example 2], the IC50 was less than 500 nM. With `C[C@@H](Oc1cc(-n2cnc3ccc(OC(F)(F)F)cc32)sc1C(N)=O)c1cccc(OC2CCNCC2)c1Cl` [Example 63, 3-({(1R)-1-[2-chloro-3-(4-piperidinyloxy)phenyl]ethyl}oxy)-5-[6-[(trifluoromethyl)oxy]-1H-1-benzimidazol-1-yl}-2-thiophenecarboxamide] the IC50 was less than 500 nM. `C[C@@H](Oc1cc(-n2cnc3cc(F)c(F)cc32)sc1C(N)=O)c1cccc(OC2CCNCC2)c1Cl` [Example 65, 3-({(1R)-1-[2-chloro-3-(4-piperidinyloxy)phenyl]ethyl}oxy)-5-(5,6-difluoro-1H-benzimidazol-1-yl)-2-thiophenecarboxamide] was tested, and the IC50 was less than 500 nM. Compound `C[C@@H](Oc1cc(-n2cnc3ccc(Br)cc32)sc1C(N)=O)c1cccc(OC2CCN(C)CC2)c1Cl` [Example 6, 5-(6-Bromo-1H-benzimidazol-1-yl)-3-[((1R)-1-{2-chloro-3-[(1-methyl-4-piperidinyl)oxy]phenyl}ethyl)oxy]-2-thiophenecarboxamide] has an IC50 of less than 500 nM. With `C[C@@H](Oc1cc(-n2cnc3cc(F)c(Cl)cc32)sc1C(N)=O)c1cccc(OC2CCNCC2)c1Cl` [Example 69, 5-(6-Chloro-5-fluoro-1H-benzimidazol-1-yl)-3-({(1R)-1-[2-chloro-3-(4-piperidinyloxy)phenyl]ethyl}oxy)-2-thiophenecarboxamide] the IC50 was less than 500 nM.
